# Biological target: T1, Amyloid-beta precursor protein (Homo sapiens, UniProt P05067)
# Assay: Inhibition of amyloid beta (1 to 42) (unknown origin) assessed as reduction in aggregation at 50 uM by ThT fluorescence assay
# T1 sequence (P05067 whole entry): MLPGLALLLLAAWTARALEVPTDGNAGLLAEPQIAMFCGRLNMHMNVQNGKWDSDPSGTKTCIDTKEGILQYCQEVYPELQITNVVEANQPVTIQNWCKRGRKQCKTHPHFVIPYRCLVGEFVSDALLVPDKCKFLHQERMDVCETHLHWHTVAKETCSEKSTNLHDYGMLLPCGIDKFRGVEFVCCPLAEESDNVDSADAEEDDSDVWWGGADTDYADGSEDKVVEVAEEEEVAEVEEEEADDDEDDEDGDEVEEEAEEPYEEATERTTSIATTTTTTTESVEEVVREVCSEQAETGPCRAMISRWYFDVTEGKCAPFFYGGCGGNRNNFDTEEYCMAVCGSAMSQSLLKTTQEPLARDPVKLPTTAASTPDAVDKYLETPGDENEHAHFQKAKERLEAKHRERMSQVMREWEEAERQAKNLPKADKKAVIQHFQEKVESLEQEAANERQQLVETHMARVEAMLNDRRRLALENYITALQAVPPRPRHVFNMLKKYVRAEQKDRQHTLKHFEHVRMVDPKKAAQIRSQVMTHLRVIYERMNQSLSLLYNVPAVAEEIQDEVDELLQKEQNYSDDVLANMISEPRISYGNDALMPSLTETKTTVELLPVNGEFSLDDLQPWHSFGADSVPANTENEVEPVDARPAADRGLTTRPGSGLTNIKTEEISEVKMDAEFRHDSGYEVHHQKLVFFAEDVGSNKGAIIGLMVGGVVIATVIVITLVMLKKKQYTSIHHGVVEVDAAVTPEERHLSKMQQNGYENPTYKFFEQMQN
row,inhibition [%],Structure (SMILES)
1,44,COc1ccc(-c2cc(=O)c3c(O)cc(O)c(-c4cc(-c5cc(=O)c6c(O)cc(OC)cc6o5)ccc4OC)c3o2)cc1 [SCIADOPITISIN]

# Biological target: T1, Amyloid-beta precursor protein
# Assay: Inhibition of human amyloid beta (1 to 40) assessed as reduction in aggregation measured after 24 hrs by ThT fluorescence assay
row,IC50 [µM],Structure (SMILES)
1,> 50,COc1ccc(-c2cc(=O)c3c(O)cc(OC)c(-c4cc(-c5cc(=O)c6c(O)cc(OC)cc6o5)ccc4OC)c3o2)cc1
2,4.9,COc1cc(O)c2c(=O)cc(-c3ccc(O)c(-c4c(O)cc(O)c5c(=O)cc(-c6ccc(O)cc6)oc45)c3)oc2c1 [SEQUOIAFLAVONE]
3,21.3,COc1cc2oc(-c3ccc(O)cc3)cc(=O)c2c(O)c1-c1cc(-c2cc(=O)c3c(O)cc(O)cc3o2)ccc1O
4,13,COc1cc2oc(-c3ccc(O)cc3)cc(=O)c2c(O)c1-c1c(O)cc(O)c2c(=O)cc(-c3ccc(O)cc3)oc12
5,> 50,COc1ccc(-c2cc(=O)c3c(O)cc(O)cc3o2)cc1-c1c(O)cc2oc(-c3ccc(O)cc3)cc(=O)c2c1O
6,> 50,COc1ccc(-c2cc(=O)c3c(O)cc(OC)c(-c4c(OC)cc5oc(-c6ccc(O)cc6)cc(=O)c5c4O)c3o2)cc1
7,10.1,COc1ccc(-c2cc(=O)c3c(O)cc(O)c(-c4cc(-c5cc(=O)c6c(O)cc(O)cc6o5)ccc4OC)c3o2)cc1 [ISOGINKGETIN]
8,13.2,COc1cc(O)c2c(=O)cc(-c3ccc(OC)c(-c4c(O)cc(O)c5c(=O)cc(-c6ccc(O)cc6)oc45)c3)oc2c1 [GINKGETIN]
9,20.1,"COc1ccc(-c2cc(=O)c3c(O)cc(OC)c(-c4cc(-c5cc(=O)c6c(O)cc(O)cc6o5)ccc4O)c3o2)cc1 [7'',4'''-dimethylamentoflavone]"
10,> 50,COc1ccc(-c2cc(=O)c3c(O)cc(OC)c(-c4c(OC)cc(O)c5c(=O)cc(-c6ccc(OC)cc6)oc45)c3o2)cc1
11,> 50,COc1cc2oc(-c3ccc(O)cc3)cc(=O)c2c(O)c1Oc1ccc(-c2cc(=O)c3c(O)cc(O)cc3o2)cc1
12,> 50,COc1ccc(-c2cc(=O)c3c(O)cc(OC)c(-c4cc(-c5cc(=O)c6c(O)cc(O)cc6o5)ccc4OC)c3o2)cc1 [KAYAFLAVONE]
13,32.8,COc1cc2oc(-c3ccc(O)cc3)cc(=O)c2c(O)c1-c1c(OC)cc(O)c2c(=O)cc(-c3ccc(O)cc3)oc12
14,4.7,COc1ccc(-c2cc(=O)c3c(O)cc(O)cc3o2)cc1-c1c(O)cc(O)c2c(=O)cc(-c3ccc(O)cc3)oc12 [BILOBETIN]
15,> 50,COc1ccc(-c2cc(=O)c3c(O)c(Oc4ccc(-c5cc(=O)c6c(O)cc(O)cc6o5)cc4)c(OC)cc3o2)cc1
16,4.8,O=c1cc(-c2ccc(O)c(-c3c(O)cc(O)c4c(=O)cc(-c5ccc(O)cc5)oc34)c2)oc2cc(O)cc(O)c12 [AMENTOFLAVONE]
17,> 50,COc1ccc(-c2cc(=O)c3c(O)cc(O)cc3o2)cc1-c1c(OC)cc(O)c2c(=O)cc(-c3ccc(O)cc3)oc12
18,17.3,COc1cc(O)c2c(=O)cc(-c3ccc(O)cc3)oc2c1-c1c(OC)cc(O)c2c(=O)cc(-c3ccc(O)cc3)oc12
19,15.9,COc1ccc(-c2cc(=O)c3c(O)cc(O)c(-c4c(OC)cc5oc(-c6ccc(O)cc6)cc(=O)c5c4O)c3o2)cc1
20,4.9,COc1ccc(-c2cc(=O)c3c(O)cc(O)c(-c4cc(-c5cc(=O)c6c(O)cc(O)cc6o5)ccc4O)c3o2)cc1 [PODOCARPUSFLAVONE A]
21,> 50,COc1cc(O)c2c(=O)cc(-c3ccc(O)cc3)oc2c1-c1cc(-c2cc(=O)c3c(O)cc(O)cc3o2)ccc1O [SOTETSUFLAVONE]
22,45.6,COc1ccc(-c2cc(=O)c3c(O)cc(OC)c(-c4c(OC)cc(O)c5c(=O)cc(-c6ccc(O)cc6)oc45)c3o2)cc1
23,> 50,COc1ccc(-c2cc(=O)c3c(O)cc(O)c(-c4cc(-c5cc(=O)c6c(O)cc(OC)cc6o5)ccc4OC)c3o2)cc1 [SCIADOPITISIN]
24,> 50,COc1ccc(-c2cc(=O)c3c(O)cc(OC)c(-c4cc(-c5cc(=O)c6c(O)cc(OC)cc6o5)ccc4O)c3o2)cc1 [HEVEAFLAVONE]
25,9.5,O=c1cc(-c2ccc(Oc3c(O)cc4oc(-c5ccc(O)cc5)cc(=O)c4c3O)cc2)oc2cc(O)cc(O)c12 [HINOKIFLAVONE]
26,> 50,COc1ccc(-c2cc(=O)c3c(O)c(Oc4ccc(-c5cc(=O)c6c(O)cc(O)cc6o5)cc4)c(O)cc3o2)cc1
27,> 50,COc1cc(O)c2c(=O)cc(-c3ccc(OC)c(-c4c(OC)cc(O)c5c(=O)cc(-c6ccc(O)cc6)oc45)c3)oc2c1

row,Structure (SMILES),IC50 [µM]
1,O=c1cc(-c2ccc(O)cc2)oc2cc(O)cc(O)c12 [APIGENIN],> 50

# Source: ChEMBL document CHEMBL4387742, “Naturally occurring biflavonoids with amyloid β aggregation inhibitory activity for development of anti-Alzheimer agents” (Bioorg Med Chem Lett, 2019)
